Experimental data taken from US11638713B2, “Patentiflorin A analogs as antiviral agents” (priority 2019, dated 2023).
Where two headings read alike, the source gives them in different places.

Experiments:
[1] = system: VSV (vesicular stomatitis virus); experiment: microbe, parasite or virus in culture; assay type: cell-based; conditions: for EC50: A549, read-out: EC50 against VSV; for inhibition at 0.0125 µg/mL: A549, 12.5 ng/mL; for inhibition at 0.05 µg/mL: A549, 50 ng/mL
H5N1 virus = experiment: microbe, parasite or virus in culture; assay type: cell-based, H5N1 influenza virus; conditions: for inhibition at 0.0125 µg/mL: H5N1, A549, 12.5 ng/mL; for inhibition at 0.05 µg/mL: H5N1, A549, 50 ng/mL; for inhibition at 0.25 µg/mL: H5N1, A549, 250 ng/mL; for EC50: H5N1, A549, read-out: EC50 against H5N1 virus; for inhibition at 0.5 µg/mL: H5N1, A549, 500 ng/mL
in vitro = conditions: human
EBOV (Ebola virus) = experiment: microbe, parasite or virus in culture; assay type: cell-based; conditions: Zaire ebolavirus; for EC50: A549, read-out: EC50 against EBOV; for inhibition at 0.0125 µg/mL: 12.5 ng/mL; for inhibition at 0.05 µg/mL: 50 ng/mL; for inhibition at 0.5 µg/mL: 500 ng/mL
HIV = experiment: microbe, parasite or virus in culture; assay type: cell-based; conditions: Human immunodeficiency virus 1, A549
SARS-CoV-2 = experiment: microbe, parasite or virus in culture; assay type: cell-based; conditions: Severe acute respiratory syndrome coronavirus 2, HepG2, read-out: EC50 against SARS-CoV-2
A549 cells = experiment: cells; conditions: Homo sapiens, A549, read-out: % Inhibition against A549 cells
[2] = Influenza A virus, read-out: % Inhibition against H5N1 virus
[3] = CC50 against the host cell line A549
[4] = read-out: % Inhibition against VSV
[5] = A549, read-out: % Inhibition against EBOV

| SMILES | EC50 [1] | inhibition at 0.0125 µg/mL (H5N1 virus; [2]) | inhibition at 0.05 µg/mL (H5N1 virus; [2]) | inhibition at 0.25 µg/mL (H5N1 virus; [2]) | EC50 (H5N1 virus; Influenza A virus) | CC50 (in vitro; CC50 (nM)) | CC50 (in vitro; [3]) | EC50 (EBOV (Ebola virus)) | EC50 (HIV) | also measured |
| --- | --- | --- | --- | --- | --- | --- | --- | --- | --- | --- |
| C=CCOC(=O)O[C@@H]1COC(Oc2c3c(c(-c4ccc5c(c4)OCO5)c4cc(OC)c(OC)cc24)C(=O)OC3)[C@H](OC(=O)OCC=C)[C@H]1OC(=O)N(C)C (stereo partly drawn) [Compound 30a, 2″,4″-O-diallyl oxycarbonyl-3″-O-dimethylcarbamyl-7-O-β-D-xylosyldiphyllin] | 8.6 nM | 44.1% | 95.7% | 97.6% | 3.88 nM | 145 nM | 35.2 nM | 1.84 nM |  |  |
| COc1cc2c(O)c3c(c(-c4ccc5c(c4)OCO5)c2cc1OC)C(=O)OC3 [Compound 5, diphyllin] |  |  |  |  |  | 3610 nM |  |  | 37.1 nM | EC50 (SARS-CoV-2): 150 nM |
| COc1cc2c(OC3OC[C@@H](O)[C@H](OCc4ccccc4)[C@H]3O)c3c(c(-c4ccc5c(c4)OCO5)c2cc1OC)C(=O)OC3 (stereo partly drawn) [Compound 31l, 3″-O-benzyl-7-O-β-D-xylosyldiphyllin] | 0.37 nM | 82.8% | 96% | 96.8% | 0.013 nM |  | 4.85 nM | 0.19 nM |  | inhibition at 0.0125 µg/mL [1, 4]: 88.7%; inhibition at 0.05 µg/mL [1, 4]: 98.4%; % Inhibition against H5N1 virus (H5N1 virus; 12.5 ng/mL): 95.1%; % Inhibition against H5N1 virus (H5N1 virus; 50 ng/mL): 95.6%; inhibition at 0.0125 µg/mL (A549 cells): 52%; inhibition at 0.05 µg/mL (A549 cells): 82.1%; inhibition at 0.0125 µg/mL (EBOV (Ebola virus); [5]): 86.4%; inhibition at 0.05 µg/mL (EBOV (Ebola virus); [5]): 94.2% |
| COc1cc2c(OC3O[C@H](CO)[C@H](O)[C@H](O)[C@H]3O)c3c(c(-c4ccc5c(c4)OCO5)c2cc1OC)C(=O)OC3 (stereo partly drawn) [Compound 26g, 7-O-β-D-galactopyranosyldiphyllin] | 210 nM |  |  |  | 63.6 nM | 7770 nM | 4130 nM | 123 nM | 1400 nM |  |
| CN(C)CCOc1ccc(/C(=C(/CCCl)c2ccccc2)c2ccccc2)cc1 [Toremifene, toremifene, reference compound] |  |  |  |  |  |  |  | 212 nM |  | inhibition at 0.5 µg/mL ([1]; A549, read-out: % Inhibition against VSV): 6.58%; inhibition at 0.5 µg/mL (H5N1 virus; [2]): 28.4%; inhibition at 0.5 µg/mL (A549 cells): -15.1%; inhibition at 0.5 µg/mL (EBOV (Ebola virus); [5]): 93.6% |
| COc1cc2c(N=C(c3ccccc3)c3ccccc3)c3c(c(-c4ccc5c(c4)OCO5)c2cc1OC)C(=O)OC3 [Compound 19p] |  |  |  |  |  | > 9200 nM |  |  | 249 nM | inhibition at 1 µg/mL (H5N1 virus; Influenza A virus, H5N1, A549, 1000 ng/mL, read-out: % Inhibition against H5N1 virus): 82.1%; inhibition at 5 µg/mL (H5N1 virus; Influenza A virus, H5N1, A549, 5000 ng/mL, read-out: % Inhibition against H5N1 virus): 96.5%; inhibition at 1 µg/mL (A549 cells): -13%; inhibition at 5 µg/mL (A549 cells): 17.2%; inhibition at 1 µg/mL (EBOV (Ebola virus); A549, 1000 ng/mL, read-out: % Inhibition against EBOV): 58.1%; inhibition at 5 µg/mL (EBOV (Ebola virus); A549, 5000 ng/mL, read-out: % Inhibition against EBOV): 89.4% |
| C=CCOC(=O)O[C@@H]1COC(Oc2c3c(c(-c4ccc5c(c4)OCO5)c4cc(OC)c(OC)cc24)C(=O)OC3)[C@H](OC(=O)OCC=C)[C@H]1OC(C)=O (stereo partly drawn) [Compound 28ab3, 2″,4″-O-diallyl oxycarbonyl-3″-acetyl-7-O-β-D-xylosyldiphyllin] | 0.85 nM |  |  |  | 1.16 nM | 386 nM | 6.14 nM | 0.98 nM | 22.9 nM |  |
| COc1cc2c(OC3O[C@H](CO)[C@@H](O)[C@H](O)[C@H]3O)c3c(c(-c4ccc5c(c4)OCO5)c2cc1OC)C(=O)OC3 (stereo partly drawn) [Compound 26f, 7-O-β-D-glucopyranosyldiphyllin] | 1040 nM |  |  |  | 371 nM | > 9220 nM | 8650 nM | 516 nM |  | inhibition at 0.1 µg/mL ([1]; A549, 100 ng/mL, read-out: % Inhibition against VSV): 47.2%; inhibition at 0.5 µg/mL ([1]; A549, 500 ng/mL, read-out: % Inhibition against VSV): 70.8%; inhibition at 0.1 µg/mL (H5N1 virus; Influenza A virus, H5N1, A549, 100 ng/mL, read-out: % Inhibition against H5N1 virus): 62.4%; inhibition at 0.5 µg/mL (H5N1 virus; [2]): 87.2%; inhibition at 0.1 µg/mL (A549 cells): -3.84%; inhibition at 0.5 µg/mL (A549 cells): 18.2%; inhibition at 0.1 µg/mL (EBOV (Ebola virus); A549, 100 ng/mL, read-out: % Inhibition against EBOV): 82.7%; inhibition at 0.5 µg/mL (EBOV (Ebola virus); [5]): 89.1% |
| COc1cc2c(OC3O[C@H](C)[C@@H](O)[C@H](OC(=O)c4ccc(N(C)C)cc4)[C@H]3O)c3c(c(-c4ccc5c(c4)OCO5)c2cc1OC)C(=O)OC3 (stereo partly drawn) [Compound 31e, 3″-O-p-dimethylaminobenzoyl-7-O-β-D-patentiflorin A] | 2.41 nM | 98.1% | 97.9% | 98.4% | 0.74 nM | 17.7 nM | 17.7 nM | 1.13 nM | 2.41 nM | inhibition at 0.0125 µg/mL [1, 4]: 77.4%; inhibition at 0.05 µg/mL [1, 4]: 86.3%; % Inhibition against H5N1 virus (H5N1 virus; 12.5 ng/mL): 95.4%; % Inhibition against H5N1 virus (H5N1 virus; 50 ng/mL): 96.5%; inhibition at 0.0125 µg/mL (A549 cells): 53.1%; inhibition at 0.05 µg/mL (A549 cells): 66.8%; inhibition at 0.0125 µg/mL (EBOV (Ebola virus); [5]): 77.5%; inhibition at 0.05 µg/mL (EBOV (Ebola virus); [5]): 86.5% |
| C=CCOC(=O)O[C@@H]1COC(Oc2c3c(c(-c4ccc5c(c4)OCO5)c4cc(OC)c(OC)cc24)C(=O)OC3)[C@H](OC(=O)OCC=C)[C@H]1O (stereo partly drawn) [Compound 29a, 2″,4″-O-diallyl oxycarbonyl-7-O-β-D-xylosyldiphyllin] | 10.6 nM |  | 59.4% | 97.3% | 5.57 nM | 438 nM | 122 nM | 10.6 nM |  |  |
| COc1cc2c(OC3O[C@H](C)[C@@H](O)[C@H](OC(=O)C4CC4)[C@H]3O)c3c(c(-c4ccc5c(c4)OCO5)c2cc1OC)C(=O)OC3 (stereo partly drawn) [Compound 31g, 3″-O-cyclopropanecarbonyl-7-O-4i-D-patentiflorin A] |  | 97.9% | 97.9% | 98.1% |  | 26.7 nM |  |  |  | inhibition at 0.01 µg/mL ([1]; A549, 10 ng/mL, read-out: % Inhibition against VSV): 63.3%; inhibition at 0.05 µg/mL [1, 4]: 95.7%; % Inhibition against H5N1 virus (H5N1 virus; 50 ng/mL): 89.0%; inhibition at 0.01 µg/mL (H5N1 virus; Influenza A virus, H5N1, A549, 10 ng/mL, read-out: % Inhibition against H5N1 virus): 78.9%; inhibition at 0.01 µg/mL (A549 cells): 11%; inhibition at 0.05 µg/mL (A549 cells): 54.6%; inhibition at 0.01 µg/mL (EBOV (Ebola virus); A549, 10 ng/mL, read-out: % Inhibition against EBOV): 79.1%; inhibition at 0.05 µg/mL (EBOV (Ebola virus); [5]): 90.9% |
